Laboratory results as given in US20250084061A1, “SULFONYL FUNCTIONAL COMPOUND, METHODS AND USES THEREOF” (Hubei Biopesticide Engineering Research Centre, priority 2023, published 2025).

How the values were obtained:
Type in all cases: in vivo
[1] = system: Plutella xylostella; assay: Insecticidal activity, artificial feed surface coating method; settings: for mortality at 125 µg/mL / mortality at 250 µg/mL / mortality at 500 µg/mL: Plutella xylostella, read-out: Insecticidal activity (mortality rate grade) Plutella xylostella
Procedure: (§1) The insecticidal activity of sulfonyl functional compounds in the above embodiments were tested for agricultural biological functions, and the targets of insecticidal activity were Heliothis armigera, Plutella xylostella and Aphiscraccivora.
(§2) Using Heliothis armigera and Plutella xylostella as target, the insecticidal activities of sulfonyl functional compounds were tested by conventional artificial feed surface coating method. 300 microliters of artificial feed and 20 microliters of test solution were added to each well of the 24-well cell culture plate. The test solution was used in different concentrations and repeated twice (Rep1 and Rep2). The concentrations of the test solution were 500 mg/L, 250 mg/L and 125 mg/L, respectively.
(§3) The insecticidal activity of sulfonyl functional compounds against Aphiscraccivora was tested by the method of dipping. Mother liquors were prepared by the sulfonyl functional compounds provided in the above embodiments dissolved in ethanol, respectively. 500 mg/L, 250 mg/L or 125 mg/L test solution could be prepared by diluting the different mother liquors with a liquor that contained 0.1 mL/L of emulgator (Tween-80). Every test solution was tested twice (Rep1 and Rep2). A blank control was set up, and the activity results were compared with the blank control. The mortality rate of 0˜30%, 30˜50%, 50-70%, 70˜90%, or 90˜100% could be orderly set as 0, 3, 5, 7, or 9.

[2] = system: Heliothis armigera; assay: as above; settings: for mortality at 125 µg/mL / mortality at 250 µg/mL / mortality at 500 µg/mL: Helicoverpa armigera, read-out: Insecticidal activity (mortality rate grade) Heliothis armigera
Procedure: as §1, §2, §3

[3] = system: Aphiscraccivora; assay: Insecticidal activity, dipping method
Procedure: as §1, §3

Row | Compound | mortality at 125 µg/mL ([1]; 125 mg/L test solution) [%] | mortality at 250 µg/mL ([1]; 250 mg/L test solution) [%] | mortality at 500 µg/mL ([1]; 500 mg/L test solution) [%] | mortality at 125 µg/mL ([2]; 125 mg/L test solution) [%] | mortality at 250 µg/mL ([2]; 250 mg/L test solution) [%] | mortality at 500 µg/mL ([2]; 500 mg/L test solution) [%] | Insecticidal activity (mortality rate grade) Aphiscraccivora ([3]; 125 mg/L test solution) | Insecticidal activity (mortality rate grade) Aphiscraccivora ([3]; 250 mg/L test solution) | Insecticidal activity (mortality rate grade) Aphiscraccivora ([3]; 500 mg/L test solution) | Insecticidal activity (mortality rate grade) Plutella xylostella ([1]; 125 mg/L test solution) | Insecticidal activity (mortality rate grade) Plutella xylostella ([1]; 250 mg/L test solution) | Insecticidal activity (mortality rate grade) Plutella xylostella ([1]; 500 mg/L test solution) | Insecticidal activity (mortality rate grade) Heliothis armigera ([2]; 125 mg/L test solution) | Insecticidal activity (mortality rate grade) Heliothis armigera ([2]; 250 mg/L test solution) | Insecticidal activity (mortality rate grade) Heliothis armigera ([2]; 500 mg/L test solution)
1 | N#CCNC(=O)c1c[n+](CCCCS(=O)(=O)O)ccc1C(F)(F)F [Compound I-3] | 30 to 50 | 50 to 70 | 50 to 70 | 0 to 30 | 30 to 50 | 30 to 50 | 7 (70˜90%) | 7 (70˜90%) | 9 (90˜100%) |  |  |  |  |  | 
2 | CC(=O)N1N=C(C)CN(N=Cc2ccc[n+](CCCS(=O)(=O)[O-])c2)C1=O [IV-4] |  |  |  |  |  |  | 9 (90˜100%) | 9 (90˜100%) | 9 (90˜100%) | 3 (30˜50%) | 5 (50-70%) | 5 (50-70%) | 0 (mortality rate of 0˜30%) | 3 (30˜50%) | 5 (50-70%)
3 | CCC(=O)N1N=C(C)CN(N=Cc2ccc[n+](CCCCS(=O)(=O)[O-])c2)C1=O [IV-9] |  |  |  |  |  |  | 7 (70˜90%) | 7 (70˜90%) | 9 (90˜100%) | 0 (mortality rate of 0˜30%) | 0 (mortality rate of 0˜30%) | 3 (30˜50%) | 0 (mortality rate of 0˜30%) | 0 (mortality rate of 0˜30%) | 0 (mortality rate of 0˜30%)
4 | O=C(NCCc1ccc(OC(F)(F)F)cc1)c1c[n+](C/C=C/S(=O)(=O)O)ccc1C(F)(F)F [Compound I-5] | 30 to 50 | 50 to 70 | 50 to 70 | 0 to 30 | 0 to 30 | 30 to 50 | 3 (30˜50%) | 3 (30˜50%) | 7 (70˜90%) |  |  |  |  |  | 
5 | CC1=NNC(=O)N(N=Cc2ccc[n+](CC=CS(=O)(=O)[O-])c2)C1 [IV-2] |  |  |  |  |  |  | 7 (70˜90%) | 9 (90˜100%) | 9 (90˜100%) | 0 (mortality rate of 0˜30%) | 3 (30˜50%) | 5 (50-70%) | 0 (mortality rate of 0˜30%) | 0 (mortality rate of 0˜30%) | 0 (mortality rate of 0˜30%)
6 | O=C(NCCc1ccc(OC(F)(F)F)cc1)c1c[n+](CCCS(=O)(=O)O)ccc1C(F)(F)F [Compound I-4] | 0 to 30 | 30 to 50 | 50 to 70 | 0 to 30 | 30 to 50 | 30 to 50 | 3 (30˜50%) | 5 (50-70%) | 7 (70˜90%) |  |  |  |  |  | 
7 | N#CCNC(=O)c1c[n+](CCCS(=O)(=O)O)ccc1C(F)(F)F [Compound I-1] | 0 to 30 | 0 to 30 | 50 to 70 | 0 to 30 | 0 to 30 | 30 to 50 | 5 (50-70%) | 7 (70˜90%) | 9 (90˜100%) |  |  |  |  |  | 
8 | CC(=O)N1N=C(C)CN(N=Cc2ccc[n+](CC=CS(=O)(=O)[O-])c2)C1=O [IV-6] |  |  |  |  |  |  | 5 (50-70%) | 9 (90˜100%) | 9 (90˜100%) | 0 (mortality rate of 0˜30%) | 3 (30˜50%) | 5 (50-70%) | 0 (mortality rate of 0˜30%) | 3 (30˜50%) | 3 (30˜50%)
9 | CCC(=O)N1N=C(C)CN(N=Cc2ccc[n+](CC=CS(=O)(=O)[O-])c2)C1=O [IV-7] |  |  |  |  |  |  | 5 (50-70%) | 7 (70˜90%) | 9 (90˜100%) | 0 (mortality rate of 0˜30%) | 0 (mortality rate of 0˜30%) | 3 (30˜50%) | 0 (mortality rate of 0˜30%) | 0 (mortality rate of 0˜30%) | 0 (mortality rate of 0˜30%)
10 | O=C(NCCc1ccc(OC(F)(F)F)cc1)c1c[n+](CCCCS(=O)(=O)O)ccc1C(F)(F)F [Compound I-6] | 0 to 30 | 30 to 50 | 50 to 70 | 0 to 30 | 0 to 30 | 30 to 50 | 5 (50-70%) | 7 (70˜90%) | 7 (70˜90%) |  |  |  |  |  | 
11 | CC(=O)N1N=C(C)CN(N=Cc2ccc[n+](CCCCS(=O)(=O)[O-])c2)C1=O [IV-8] |  |  |  |  |  |  | 9 (90˜100%) | 9 (90˜100%) | 9 (90˜100%) | 0 (mortality rate of 0˜30%) | 3 (30˜50%) | 3 (30˜50%) | 0 (mortality rate of 0˜30%) | 0 (mortality rate of 0˜30%) | 0 (mortality rate of 0˜30%)
12 | N#CCNC(=O)c1c[n+](C/C=C/S(=O)(=O)O)ccc1C(F)(F)F [Compound I-2] | 0 to 30 | 30 to 50 | 50 to 70 | 0 to 30 | 30 to 50 | 50 to 70 | 7 (70˜90%) | 9 (90˜100%) | 9 (90˜100%) |  |  |  |  |  | 
13 | CC1=NNC(=O)N(N=Cc2ccc[n+](CCCS(=O)(=O)[O-])c2)C1 [IV-1] |  |  |  |  |  |  | 9 (90˜100%) | 9 (90˜100%) | 9 (90˜100%) | 3 (30˜50%) | 3 (30˜50%) | 5 (50-70%) | 0 (mortality rate of 0˜30%) | 3 (30˜50%) | 3 (30˜50%)
14 | CC1=NNC(=O)N(N=Cc2ccc[n+](CCCCS(=O)(=O)[O-])c2)C1 [IV-3] |  |  |  |  |  |  | 9 (90˜100%) | 9 (90˜100%) | 9 (90˜100%) | 0 (mortality rate of 0˜30%) | 3 (30˜50%) | 3 (30˜50%) | 0 (mortality rate of 0˜30%) | 0 (mortality rate of 0˜30%) | 3 (30˜50%)
15 | CCC(=O)N1N=C(C)CN(N=Cc2ccc[n+](CCCS(=O)(=O)[O-])c2)C1=O [IV-5] |  |  |  |  |  |  | 7 (70˜90%) | 7 (70˜90%) | 9 (90˜100%) | 0 (mortality rate of 0˜30%) | 0 (mortality rate of 0˜30%) | 3 (30˜50%) | 0 (mortality rate of 0˜30%) | 0 (mortality rate of 0˜30%) | 0 (mortality rate of 0˜30%)
